Measurements: patent US9056840B2, “Coelenterazine analogues and coelenteramide analogues” (JNC Corporation, priority 2010, dated 2015)

Key:
Assay type in all cases: physicochemical
[1] = biological target: T1, apoaequorin (Aequorea victoria, UniProt P07164); test: Fluorescence spectra of semi-synthetic gFP (coelenteramide analogue + apoaequorin, EDTA); settings: 10 mM EDTA buffer, excitation 337 nm
T1 construct: purchased Chisso Corporation
Procedure: Semi-synthetic gFP was prepared from recombinant apoaequorin and coelenteramide analogues as follows. In 1 ml of 50 mM Tris-HC 1 (pH 7.6) containing 10 mM EDTA and 1 mM DTT, apoaequorin (0.2 mg) was mixed with 8 μl of a coelenteramide analogue (1 μg/μl in anhydrous methanol). The mixture was allowed to stand 4° C. for 16 hours to prepare semi-synthetic gFP-like protein (hereinafter sometimes simply referred to as “semi-synthetic gFP”).
(§1) The fluorescence spectra were determined as follows. For coelenteramide analogue alone, the fluorescence was measured according to the procedures for semi-synthetic gFP and semi-synthetic BFP described in EXAMPLES 11 and 12, except for in the absence of apoaequorin, using 1 ml of 50 mM Tris-HCl (pH 7.6) containing 10 mM EDTA and 1 mM DTT or 1 ml of 50 mM Tris-HCl (pH 7.6) containing 10 mM CaCl2 and 1 mM DTT, in the final concentration of coelenteramide analogue adjusted to 8 μg/ml. The fluorescence spectra were measured at 25° C. in a quartz cell (10 mm light path length) using a Jasco FP-6500 spectrofluorometer (excitation wavelength: 337 nm, emission/excitation bandwidth: 3 nm; response: 0.5 sec, scan speed, 1000 nm/min).

[2] = biological target: T1, apoaequorin; test: Fluorescence spectra of semi-synthetic BFP (coelenteramide analogue + apoaequorin, CaCl2); settings: 10 mM CaCl2 buffer, excitation 337 nm
Procedure: Semi-synthetic gFP was prepared from recombinant apoaequorin and coelenteramide analogues as follows. In 1 ml of 50 mM Tris-HC 1 (pH 7.6) containing 10 mM CaCl2 and 1 mM DTT, apoaequorin (0.2 mg) was mixed with 8 μl of a coelenteramide analogue (1 μg/μl in anhydrous methanol). The mixture was allowed to stand at 4° C. for 16 hours to prepare semi-synthetic BFP-like protein (hereinafter sometimes simply referred to as “semi-synthetic BFP”).
as §1

[3] = Fluorescence spectra of coelenteramide analogue alone (absence of apoaequorin); settings: analogue alone 8 μg/ml; for Coelenteramide (Buffer containing CaCl2) Fluorescence intensity (rlu) / Coelenteramide (Buffer containing CaCl2) Maximum fluorescence wavelength λmax (nm): 10 mM CaCl2 buffer pH 7.6, excitation 337 nm; for Coelenteramide (EDTA-containing buffer) Fluorescence intensity (rlu) / Coelenteramide (EDTA-containing buffer) Maximum fluorescence wavelength λmax (nm): 10 mM EDTA buffer pH 7.6, excitation 337 nm
Procedure: as §1

T1 sequence (P07164 other isoform, or with tags, fused parts or gaps with the stated changes): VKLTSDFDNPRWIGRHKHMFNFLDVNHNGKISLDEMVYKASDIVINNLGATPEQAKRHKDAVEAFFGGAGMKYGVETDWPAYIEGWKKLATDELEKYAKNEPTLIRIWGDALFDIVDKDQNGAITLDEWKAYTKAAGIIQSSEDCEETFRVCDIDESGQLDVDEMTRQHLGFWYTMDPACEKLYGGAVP

Row | Structure (SMILES) | Semi-synthetic gFP (EDTA-containing buffer) Fluorescence intensity (rlu) [1] [rlu] | Semi-synthetic gFP (EDTA-containing buffer) Maximum fluorescence wavelength λmax (nm) [1] [nm] | Fluorescence intensity [2] [rlu] | Semi-synthetic BFP (Buffer containing CaCl2) Maximum fluorescence wavelength λmax (nm) [2] [nm] | Coelenteramide (Buffer containing CaCl2) Fluorescence intensity (rlu) [3] [rlu] | Coelenteramide (Buffer containing CaCl2) Maximum fluorescence wavelength λmax (nm) [3] [nm] | Coelenteramide (EDTA-containing buffer) Fluorescence intensity (rlu) [3] [rlu] | Coelenteramide (EDTA-containing buffer) Maximum fluorescence wavelength λmax (nm) [3] [nm]
1 | O=C(Cc1ccc(O)cc1)Nc1ncc(-c2ccc(O)cc2)nc1-c1cc2sc3ccsc3c2s1 [Compound 4l, 2-(4-Hydroxyphenyl)-N-[5-(4-hydroxyphenyl)-3-(thieno[3,2-b:2′,3′-d]thiophen-2-yl)pyrazin-2-yl]acetamide] | 140.5 | 524.5 | 63.5 | 468.0 | 8.8 | 523.0 | 9.3 | 523.5
2 | O=C(Cc1ccc(O)cc1)Nc1ncc(-c2ccc(O)cc2)nc1-c1csc2ccccc12 [Compound 4i, N-[3-(Benzo[b]thiophen-3-yl)-5-(4-hydroxyphenyl)pyrazin-2-yl]-2-(4-hydroxyphenyl) acetamide] | 106.5 | 512.5 | 80.0 | 494.0 | 11.8 | 468.0 | 12.1 | 471.5
3 | O=C(Cc1ccc(O)cc1)Nc1ncc(-c2ccc(O)cc2)nc1Br [Compound 4t, N-[3-Bromo-5-(4-hydroxyphenyl)pyrazin-2-yl]-2-(4-hydroxyphenyl)acetamide] | 22.0 | 482.5 |  |  | 12.1 | 482.0 | 11.8 | 480.5
4 | Oc1ccc(NC(=S)Nc2ncc(-c3ccc(O)cc3)nc2Cc2ccccc2)cc1 [Compound 4v, 1-[3-Benzyl-5-(4-hydroxyphenyl)pyrazin-2-yl]-3-(4-hydroxyphenyl)thiourea] | 3.6 | 491.0 | 3.3 | 430.5 | 1.4 | 466.0 | 1.4 | 484.0
5 | O=C(Cc1ccc(O)cc1)Nc1ncc(-c2ccc(O)cc2)nc1-c1ccsc1 [Compound 4g, 2-(4-Hydroxyphenyl)-N-[5-(4-hydroxyphenyl)-3-(thiophen-3-yl)pyrazin-2-yl]acetamide] | 108.5 | 512.5 | 195.7 | 501.5 | 6.1 | 470.5 | 5.5 | 473.0
6 | O=C(Cc1ccc(O)cc1)Nc1ncc(-c2ccc(O)cc2)nc1-c1ccc([N+](=O)[O-])cc1 [Compound 4o, 2-(4-Hydroxyphenyl)-N-[5-(4-hydroxyphenyl)-3-(4-nitrophenyl)pyrazin-2-yl]acetamide] | 3.4 | 485.0 | 3.9 | 477.5 | 2.1 | 478.5 | 2.1 | 482.5
7 | CN(C)c1ccc(-c2nc(-c3ccc(O)cc3)cnc2NC(=O)Cc2ccc(O)cc2)cc1 [Compound 4n, N-[3-{4-(Dimethylamino)phenyl}-5-(4-hydroxyphenyl)pyrazin-2-yl]-2-(4-hydroxyphenyl)acetamide] | 151.5 | 485.5 | 231.3 | 487.5 |  |  |  | 
8 | O=C(Cc1ccc(O)cc1)Nc1ncc(-c2ccc(O)cc2)nc1-c1cc2sccc2s1 [Compound 4k, 2-(4-Hydroxyphenyl)-N-[5-(4-hydroxyphenyl)-3-(thieno[3,2-b]thiophen-2-yl)pyrazin-2-yl]acetamide] | 139.9 | 532.0 | 148.2 | 538.5 | 9.7 | 491.0 | 10.3 | 487.5
9 | O=C(Cc1ccc(O)cc1)Nc1ncc(-c2ccc(O)cc2)nc1-c1cccs1 [Compound 4f, 2-(4-Hydroxyphenyl)-N-[5-(4-hydroxyphenyl)-3-(thiophen-2-yl)pyrazin-2-yl]acetamide] | 70.5 | 536.5 | 96.4 | 527.0 | 2.2 | 447.0 | 2.3 | 448.5
10 | O=C(Nc1ncc(-c2ccc(O)cc2)nc1Cc1ccccc1)c1ccc(O)cc1 [Compound 4x, N-[3-Benzyl-5-(4-hydroxyphenyl)pyrazin-2-yl]-4-hydroxybenzamide] |  |  | 36.8 | 485.0 | 1.4 | 450.0 | 1.3 | 449.0
11 | O=C(Nc1ncc(-c2ccc(O)cc2)nc1Cc1ccccc1)c1cccc(O)c1 [Compound 4y, N-[3-Benzyl-5-(4-hydroxyphenyl)pyrazin-2-yl]-3-hydroxybenzamide] | 44.8 | 492.0 |  |  | 1.4 | 457.0 | 1.3 | 456.0
12 | O=C(Cc1ccc(O)cc1)Nc1ncc(-c2ccc(O)cc2)nc1-c1cc2ccccc2s1 [Compound 4h, N-[3-(Benzo[b]thiophen-2-yl)-5-(4-hydroxyphenyl)pyrazin-2-yl]-2-(4-hydroxyphenyl) acetamide] |  |  | 153.3 | 427.0 | 101.2 | 426.5 | 115.2 | 426.5
13 | O=C(Cc1ccc(O)cc1)Nc1ncc(-c2ccc(O)cc2)nc1-c1ccc(-c2cccs2)s1 [Compound 4m, N-[3-(2,2′-Bithiophen-5-yl)-5-(4-hydroxyphenyl)pyrazin-2-yl]-2-(4-hydroxyphenyl) acetamide] | 163.8 | 482.5 | 182.4 | 457.5 |  |  |  | 
14 | O=C(Nc1ccc(O)cc1)Nc1ncc(-c2ccc(O)cc2)nc1Cc1ccccc1 [Compound 4u, 1-[3-Benzyl-5-(4-hydroxyphenyl)pyrazin-2-yl]-3-(4-hydroxyphenyl)urea] | 11.4 | 494.5 |  |  | 0.9 | 445.5 | 0.7 | 440.5
